Experiments:
[1] = biological target: T1, zebrafish α9 nAChR (homomeric) (Danio rerio, UniProt A0A8M9PIT7); assay: two-electrode voltage clamp, peak inward current, Hill fit; assay type: cell-based
T1 sequence (A0A8M9PIT7 20-580): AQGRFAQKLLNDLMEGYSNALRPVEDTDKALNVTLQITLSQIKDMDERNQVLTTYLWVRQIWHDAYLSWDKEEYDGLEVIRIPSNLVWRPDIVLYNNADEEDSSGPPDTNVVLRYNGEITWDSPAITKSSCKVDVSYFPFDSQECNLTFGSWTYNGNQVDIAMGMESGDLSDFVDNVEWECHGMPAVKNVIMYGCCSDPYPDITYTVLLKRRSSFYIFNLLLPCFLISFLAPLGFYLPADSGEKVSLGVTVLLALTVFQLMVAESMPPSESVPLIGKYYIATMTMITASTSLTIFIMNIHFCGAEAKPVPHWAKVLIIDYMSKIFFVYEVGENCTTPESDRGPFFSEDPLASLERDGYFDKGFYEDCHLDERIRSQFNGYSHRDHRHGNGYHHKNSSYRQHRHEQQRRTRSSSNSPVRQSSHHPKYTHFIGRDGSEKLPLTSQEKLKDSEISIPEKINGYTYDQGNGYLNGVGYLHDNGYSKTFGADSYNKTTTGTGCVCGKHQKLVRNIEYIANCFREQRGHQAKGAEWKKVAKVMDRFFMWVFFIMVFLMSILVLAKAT

[2] = biological target: T2, zebrafish α9α10 (1:2) nAChR (Danio rerio, UniProt A0A8M9PIT7+Q1LY90); assay: as above; assay type: cell-based
T2 sequence (A0A8M9PIT7 20-580): T1 sequence (A0A8M9PIT7 20-580)
T2 sequence (Q1LY90 26-527): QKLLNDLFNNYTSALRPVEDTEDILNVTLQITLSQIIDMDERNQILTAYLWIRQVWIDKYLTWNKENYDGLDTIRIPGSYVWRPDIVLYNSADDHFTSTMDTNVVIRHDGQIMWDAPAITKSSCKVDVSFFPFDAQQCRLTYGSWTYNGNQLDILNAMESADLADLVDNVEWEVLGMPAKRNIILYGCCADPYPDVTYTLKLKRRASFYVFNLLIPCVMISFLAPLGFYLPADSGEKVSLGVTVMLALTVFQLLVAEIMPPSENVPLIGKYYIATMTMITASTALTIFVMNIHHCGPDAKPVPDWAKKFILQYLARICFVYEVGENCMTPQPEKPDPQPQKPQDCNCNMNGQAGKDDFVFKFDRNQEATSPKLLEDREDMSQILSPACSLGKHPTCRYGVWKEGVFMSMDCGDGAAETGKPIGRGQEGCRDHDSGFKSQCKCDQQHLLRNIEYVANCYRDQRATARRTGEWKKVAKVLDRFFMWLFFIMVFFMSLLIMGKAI

CC(=O)OCC[N+](C)(C)C [ACh, acetylcholine]
EC50 [1]: 11.7 µM
EC50 [2]: 437 µM

Source: article doi:10.1101/2020.07.09.196246v1 (biorxiv, 2020)
